# Test results reported in patent US20100203044A1, “DR6 ANTAGONISTS AND USES THEREOF IN TREATING NEUROLOGICAL DISORDERS” (priority 2006, published 2010).
# “Also recorded” adds a separate entry of the source. Residues, ends and D or L forms follow the SMILES beside them. *: point of attachment. Cbz = O=C(OCc1ccccc1)*; CH2F = FC*
# Assays:
# sensory neurons = experiment: NGF deprivation assay in Campenot Chambers, local sensory axonal degeneration; format: cell-based, mouse; details: for sensory axonal degeneration induced by NGF withdrawal: 30 μg/ml in axonal compartments with anti-NGF, 0, 6 and 24 hours
# Experimental: Materials and methods used to generate the data shown in this figure are as follows. To examine whether ligand is required for DR6 function in sensory axonal degeneration, a compartmented culture analysis of sensory axon growth and degeneration was carried out as follows. A Campenot nerve cell chamber system was used to isolate neuronal processes (axons) from the cell bodies in different compartments (separate fluid environments), analogous to neuronal cell bodies in one location of the nervous system projecting their axons to a distal target in another location. The assay was carried out as originally described by Campenot (Campenot et al., J. Neurosci. 11(4): 1126-39 (1991)) with the following modifications. Briefly, 35-mm tissue culture dishes were coated with PDL/Laminin and scratched with a pin rake (Tyler Research) to generate tracks, as illustrated for example in FIGS. 1 and 4 of Campenot et al., supra.
# A drop of culture medium (Neurobasal medium with B27 supplement, 25 ng/ml of NGF, and 4 g/L of methylcellulose) was placed on the scratched substratum. A Teflon divider (Tyler Research) was seated on silicone grease and a dab of silicone grease was placed at the mouth of the center slot. Dissociated sensory neurons derived from E12.5 mouse DRGs were suspended in methylcellulose-thickened medium and loaded into a disposable sterile syringe fitted with a 22-gauge needle. This cell suspension was injected into the center slots of each compartmented dish under the dissecting microscope. The neurons were allowed to settle overnight. […]
# To trigger local axonal degeneration, NGF-containing medium from axonal compartments was substituted with neurobasal medium with an NGF blocking antibody (anti-NGF, Genentech, Inc., 20 ug/ml). Zero hours, 6 hours, or 24 to 48 hours following NGF deprivation, sensory neurons were fixed in 4% PFA for 30 minutes at room temperature and processed for immunofluorescence staining with axonal marker TUJ-1 (Covance, 1:500 dilution) to visualize degenerating axons by fluorescence microscopy (FIG. 11B) (as above described in Example 7). […]
# To examine whether ligand is required for DR6 function in axonal degeneration program triggered by NGF withdrawal, 30 μg/ml of hDR6-ECD-Fc immunoadhesin protein (described in EXAMPLE 3 above) or 30 μg/ml of a control Fc (Genentech, Inc.) was included together with anti-NGF treatment in axonal compartments of Campenot Chambers. Zero to 24 hours after NGF deprivation, axons in Campenot Chambers were fixed with 4% PFA/PBS and visualized by immuno-fluorescence staining with TUJ-1 (1:500, Covance)/secondary antibody conjugated to a fluorescence group Alexa 488 (Molecular Probes, BD) (FIG. 11B). […]
# [1] = tested on: DR6-AP binding sites on BAX null sensory axons; experiment: in situ DR6-AP sensory axon binding assay after NGF deprivation; format: cell-based, mouse; details: BAX null sensory axons E12.5; BACE inhibitor at 1 uM
# Experimental: For the in situ DR6-AP sensory axon binding assay, either wild-type or Bax null sensory explants were cultured in Neurobasal medium/B27 (Invitrogen) as outlined in the Examples 7-8 above, with 50 ng/ml NGF (Roche). Two days post-plating, DRG explants were either left untreated or deprived from NGF as described above in Examples 7-8. Bax inhibitory peptide was added where indicated on FIG. 12B (10 uM, Bax-V5, Tocris). Twelve hours post-NGF deprivation, DRG explants were washed twice with the binding buffer (HBSS, Gibco Cat. No. 14175-095, with 0.2% BSA, 0.1% NaN3, 5 mM CaCl2, 1 mM MgCl2, 20 mM HEPES, pH=7.0). AP binding assay was then carried out by making a 1:1 mixture of DR6-AP conditioned medium and the binding buffer (or control AP conditioned medium and the binding buffer), which was applied directly to DRG explants in 8-well culture slides (Becton, Dickinson and Company) and incubated for 90 minutes at room temperature.
# Following the incubation, unbound DR6-AP proteins were washed away by rinsing DRG explants five times with the binding buffer. DRG explants were then fixed with 3.7% formaldehyde diluted in PBS, for 12 minutes at room temperature. The remaining formaldehyde was removed by rinsing DRG explants 3 times with HBS buffer (20 mM HEPES pH=7.0, 150 mM NaCl). Endogenous AP activity was blocked by heat inactivation at 65° C. in HBS buffer for 30 minutes. […]
# commissural neurons = experiment: dorsal spinal cord (commissural explant) survival assay; format: cell-based, rat; details: for commissural axon degeneration: 48 hours, hDR6-ECD-Fc at 30 μg/ml and 10 μg/ml
# Experimental: To examine functional roles of DR6 in axonal degeneration and programmed cell death of commissural neurons, an RNAi-based dorsal spinal cord survival assay (Kennedy et al., Cell, 78:425-435 (1994); Wang et al., supra, 1999) was conducted (see FIG. 3). E13 rat or E11.5 mouse embryos were placed in L15 medium (Gibco) and siRNAs (IDT) together with green fluorescent protein (“GFP”)-encoding plasmids were injected into the neural tubes. The siRNAs and plasmids were then delivered to dorsal progenitor cells by electroporation. Dorsal spinal cord explants were dissected out, embedded into a 3D-collagen gel matrix, and cultured in Opti-MEM/F12 medium (Invitrogen) with recombinant netrin-1 ([…]) and 5% horse serum (Sigma) at 37° C. in a 5% CO2 environment. Within 16 hours in response to chemo-attractant netrin-1, commissural axons grow out of the explant into the collagen matrix gel (Kennedy et al., supra, 1994). Commissural axons are visualized by GFP fluorescence by observation using an inverted microscope.
# Materials and methods used to generate the data shown in this figure are as follows. To investigate physiological roles of DR6 receptor in axonal degeneration and programmed cell death of commissural neurons, a dorsal spinal cord survival assay according to protocols known in the art (Kennedy et al., Cell, 78:425-435 (1994); Wang et al., Nature, 401:765-769 (1999)) was performed (with data shown in FIG. 4B). E13 rat embryos were placed in L15 medium (Gibco) and injected into their neural tubes with the following siRNA constructs (FIG. 4B): […]
# A dorsal spinal cord survival assay (as described in Example 2 above) was conducted using anti-DR6 antibodies. Microscopic observation (using green fluorescence channel for GFP) was employed to visualize commissural axons. […] To visualize GFP-expressing commissural axons, pictures were taken on the Axiovert 200 Zeiss inverted microscope (in green fluorescence channel for GFP) using AxioVision40 Release 4.5.0.0 SP1 (March 2006) computer software from Carl Zeiss Imaging Solutions. […]
# [2] = cited from earlier work
compound,measurement,setting,value
OM99-2 [reference compound],sensory axonal degeneration in the absence of NGF,sensory neurons; BACE inhibitor at 1 uM,blocked
same,disappearance of DR6-AP binding sites from sensory axons following NGF withdrawal,[1],can block the disappearance of DR6-AP binding sites
"hDR6-ECD-Fc: human DR6 extracellular domain sequence fused with Fc, SEQ ID NO: 4",sensory axonal degeneration induced by NGF withdrawal,sensory neurons,delayed sensory axonal degeneration; also recorded: delayed the onset of axonal degeneration
same,sensory axonal degeneration induced by NGF withdrawal,sensory neurons; listed as DR6-Fc,can be delayed
same,commissural axon degeneration,commissural neurons,delayed
same,commissural axon degeneration,commissural neurons; listed as DR6-Fc,can be delayed
CC12CC3CC(C)(C1)CC(N)(C3)C2 [Memantine],"symptoms across SIB, ADCS-ADL19, CIBIC-Plus and NPI outcome measures","[2]; human, in vivo",improvement and stabilization of symptoms
same,"outcome measures SIB, ADCS-ADL19, CIBIC-Plus, NPI, BGP versus placebo",[2]; patients taking stable doses of Donepezil,benefit over placebo
"CC[C@H](C)[C@H](NC(=O)OCc1ccccc1)C(=O)N[C@@H](CCC(=O)OC)C(=O)N[C@H](C(=O)N[C@@H](CC(=O)OC)C(=O)CF)[C@@H](C)O [caspase-8 inhibitor, Z-IETD-FMK, reference compound] (Cbz-IE(OMe)TD(OMe)-CH2F)",sensory axonal degeneration after NGF deprivation,"sensory neurons; neurons cultured 5 days, then 24 hours, SP 600125 1 uM, Z-IETD-FMK 10 uM, Z-DEVD-FMK 10 uM",delayed
"(L)-HIV-TAT48-57-PP-JBD20 [L-JNK-I, reference compound]",axonal degeneration of commissural neurons,commissural neurons; JNK signaling blocked by peptide inhibitor at 1 μM,partially blocked axonal degeneration
